This assay has as its system L1210 leukemia ip in BDF1 mice, survival T/C. Nature of the assay: NCI In Vivo Anticancer Drug Screen. Data for tumor model L1210 Leukemia (intraperitoneal) in B6D2F1 (BDF1) mice. The note with it: endpoint: mean survival time, higher = longer survival. The gist of the method: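 Antitumor effect is assessed in tumor-bearing animals. Survival in the compound arm is compared with a vehicle-dosed control arm and expressed as their quotient.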

Setting [1] is: dose: 100.0 mg/kg/injection, schedule: Q01DX009 (ip), vehicle: Klucel (hydroxypropylcellulose) (HPC).
Where [2] appears, read: dose: 100.0 mg/kg/injection, schedule: Q04DX003 (ip), vehicle: Klucel (hydroxypropylcellulose) (HPC).
Where [3] appears, read: dose: 200.0 mg/kg/injection, schedule: Q01DX009 (ip), vehicle: Klucel (hydroxypropylcellulose) (HPC).
Setting [4] is: dose: 200.0 mg/kg/injection, schedule: Q04DX003 (ip), vehicle: Klucel (hydroxypropylcellulose) (HPC).
Where [5] appears, read: dose: 100.0 mg/kg/injection, schedule: Q04DX003 (ip), vehicle: saline with Tween-80.
Where [6] appears, read: dose: 200.0 mg/kg/injection, schedule: Q04DX003 (ip), vehicle: saline with Tween-80.
The mark [7] stands for this setting: dose: 400.0 mg/kg/injection, schedule: Q04DX003 (ip), vehicle: saline with Tween-80.
The mark [8] stands for this setting: dose: 50.0 mg/kg/injection, schedule: Q01DX009 (ip), vehicle: saline with Tween-80.
[9] abbreviates: dose: 100.0 mg/kg/injection, schedule: Q01DX001 (ip), vehicle: saline.
[10] abbreviates: dose: 200.0 mg/kg/injection, schedule: Q01DX001 (ip), vehicle: saline.
[11] abbreviates: dose: 400.0 mg/kg/injection, schedule: Q01DX001 (ip), vehicle: saline.
Where [12] appears, read: dose: 100.0 mg/kg/injection, schedule: Q01DX001 (ip), vehicle: carboxymethylcellulose (CMC).
Setting [13] is: dose: 100.0 mg/kg/injection, schedule: Q04DX003 (ip), vehicle: saline.
Where [14] appears, read: dose: 200.0 mg/kg/injection, schedule: Q04DX003 (ip), vehicle: saline.
Setting [15] is: dose: 400.0 mg/kg/injection, schedule: Q04DX003 (ip), vehicle: saline.
The mark [16] stands for this setting: dose: 50.0 mg/kg/injection, schedule: Q04DX003 (ip), vehicle: Klucel (hydroxypropylcellulose) (HPC).
Setting [17] is: dose: 100.0 mg/kg/injection, schedule: Q01DX009 (ip), vehicle: saline with Tween-80.
Where [18] appears, read: dose: 200.0 mg/kg/injection, schedule: Q01DX009 (ip), vehicle: saline with Tween-80.
The mark [19] stands for this setting: dose: 75.0 mg/kg/injection, schedule: Q01DX001 (ip), vehicle: saline.

Values joined by “and” are separate entries in the source; they are usually repeats but may differ in a detail not shown here. Equal entries are not always repeated. Toxic doses and inconclusive results are not listed.

As for `Cc1cc(Cl)nc(Cl)c1C#N`, the T/C runs as follows: under setting [1], 101 % of control; under setting [2], 100 % of control; under setting [3], 97 % of control; under setting [4], 89 % of control.

Regarding `COC(=O)C1C=Cc2ccccc21` (stereo not drawn), the T/C by setting is: under setting [5], 104 % of control; under setting [6], 93 % of control; under setting [7], 102 % of control.

For the compound `CCCCNC(=O)NC(=O)C(C)(C)Oc1ccc(Cl)cc1`, the T/C was 103 % of control (dose: 50.0 mg/kg/injection, schedule: Q01DX009 (ip), vehicle: saline); 103 % of control (dose: 100.0 mg/kg/injection, schedule: Q01DX009 (ip), vehicle: saline); 95 % of control (dose: 200.0 mg/kg/injection, schedule: Q01DX009 (ip), vehicle: saline).

In the case of `CC(C)(C)CC(CC(C)(C)C)C(=O)O`, the T/C is, setting by setting: (dose: 106.0 mg/kg/injection, schedule: Q01DX Z (ip), vehicle: other) 94 % of control; (dose: 160.0 mg/kg/injection, schedule: Q01DX Z (ip), vehicle: other) 102 % of control; (dose: 240.0 mg/kg/injection, schedule: Q01DX Z (ip), vehicle: other) 96 % of control and 103 % of control; (dose: 360.0 mg/kg/injection, schedule: Q01DX Z (ip), vehicle: other) 101 % of control and 89 % of control; (dose: 540.0 mg/kg/injection, schedule: Q01DX Z (ip), vehicle: other) 86 % of control.

As for `Cc1cc2nc(Cc3ccccc3)[nH]c2cc1C`, under setting [8], the T/C was 90 % of control.

For `O=C(Nc1ccc(Cl)c(Cl)c1)O/N=C\c1c(Cl)ccc([N+](=O)[O-])c1Cl`, the T/C by setting is: under setting [9], 102 % of control; under setting [10], 107 % of control; under setting [11], 102 % of control.

Consider `CC(C)N(CCCCO)C(C)C`, for which, under setting [12], the T/C is 91 % of control.

`CCCCC(CSC#N)SC#N` (stereo not drawn): the T/C was 94 % of control (dose: 3.13 mg/kg/injection, schedule: Q01DX009 (ip), vehicle: saline with Tween-80); 94 % of control (dose: 6.25 mg/kg/injection, schedule: Q01DX009 (ip), vehicle: saline with Tween-80); 94 % of control (dose: 12.5 mg/kg/injection, schedule: Q01DX009 (ip), vehicle: saline with Tween-80).

On to `CC1CC2NC(C)CC3NC(C)CC(N1)N32` (stereo not drawn), for which the T/C under setting [2] is 106 % of control; the T/C under setting [4] was 97 % of control; the T/C (dose: 400.0 mg/kg/injection, schedule: Q04DX003 (ip), vehicle: Klucel (hydroxypropylcellulose) (HPC)) was 111 % of control.

In the case of `OCC1COc2ccccc2O1` (stereo not drawn), the T/C reads like this: under setting [13], 101 % of control; under setting [14], 106 % of control; under setting [15], 103 % of control.

`N#Cc1ccc(NC(=O)COc2cccc(Cl)c2)cc1`: the T/C is 95 % of control (dose: 37.5 mg/kg/injection, schedule: Q01DX001 (ip), vehicle: saline with Tween-80) and 92 % of control (dose: 150.0 mg/kg/injection, schedule: Q01DX001 (ip), vehicle: saline with Tween-80).

For the compound `Nc1nc(=S)c2[nH]c(N=Nc3ccc(S(=O)(=O)Nc4ccccn4)cc3)nc2[nH]1`, the T/C is 170 % of control (dose: 6.25 mg/kg/injection, schedule: Q01DX009 (ip), vehicle: Klucel (hydroxypropylcellulose) (HPC)); 112 % of control (dose: 25.0 mg/kg/injection, schedule: Q01DX009 (ip), vehicle: Klucel (hydroxypropylcellulose) (HPC)); 100 % of control and 117 % of control and 124 % of control (dose: 50.0 mg/kg/injection, schedule: Q01DX009 (ip), vehicle: Klucel (hydroxypropylcellulose) (HPC)); 106 % of control under setting [16]; 98 % of control under setting [9]; 101 % of control under setting [1]. The T/C by setting is: under setting [2], 117 % of control; under setting [10], 104 % of control; under setting [3], 100 % of control; under setting [11], 104 % of control.

On to `O=C1COc2ccccc2N1`, for which the T/C is 96 % of control under setting [16]; 103 % of control (dose: 100.0 mg/kg/injection, schedule: Q01DX001 (ip), vehicle: other); 94 % of control under setting [2]; 96 % of control (dose: 200.0 mg/kg/injection, schedule: Q01DX001 (ip), vehicle: other); 96 % of control under setting [4].

As for `[N-]=[N+]=Nc1nc(Cl)nc2c1ncn2Cc1ccccc1`, the T/C (dose: 75.0 mg/kg/injection, schedule: Q01DX001 (ip), vehicle: other) is 97 % of control.

In the case of `Cc1cc(C)c(/C=C2\CCNC2=O)c(C)c1`, the T/C was 96 % of control (dose: 50.0 mg/kg/injection, schedule: Q01DX001 (ip), vehicle: carboxymethylcellulose (CMC)); 90 % of control under setting [12]; 100 % of control (dose: 200.0 mg/kg/injection, schedule: Q01DX001 (ip), vehicle: carboxymethylcellulose (CMC)); 105 % of control (dose: 400.0 mg/kg/injection, schedule: Q01DX001 (ip), vehicle: carboxymethylcellulose (CMC)).

Turning to `c1ccc2c(SCCC3CCCCC3)nnnc2c1`, the T/C runs as follows: (dose: 100.0 mg/kg/injection, schedule: Q04DX003 (ip), vehicle: acetone) 89 % of control; (dose: 200.0 mg/kg/injection, schedule: Q04DX003 (ip), vehicle: acetone) 98 % of control; (dose: 400.0 mg/kg/injection, schedule: Q04DX003 (ip), vehicle: acetone) 93 % of control.

Regarding `O=[N+]([O-])c1ccc(Sc2cccs2)c([N+](=O)[O-])c1`, the T/C by setting is: under setting [17], 97 % of control; under setting [5], 105 % of control; under setting [18], 100 % of control; under setting [6], 93 % of control; (dose: 400.0 mg/kg/injection, schedule: Q01DX009 (ip), vehicle: saline with Tween-80) 102 % of control; under setting [7], 93 % of control.

On to `Cc1ncc(CO)c(Cc2ccc(N(C)C)cc2)c1O`, for which the T/C is 88 % of control (dose: 100.0 mg/kg/injection, schedule: Q04DX002 (ip), vehicle: saline); 103 % of control (dose: 200.0 mg/kg/injection, schedule: Q04DX002 (ip), vehicle: saline); 95 % of control (dose: 400.0 mg/kg/injection, schedule: Q04DX002 (ip), vehicle: saline).

As to `C[N+](C)(CCl)C1CCCCC1`, under setting [19], the T/C was 107 % of control.

With `O=C1Nc2ccccc2/C1=C/C(=O)c1c[nH]c2ccccc12`, the T/C was 101 % of control under setting [8], 101 % of control under setting [17] and 96 % of control under setting [18].

In the case of `O=S(CCO)c1ccc(Cl)cc1` (stereo not drawn), the T/C reads like this: (dose: 100.0 mg/kg/injection, schedule: Q04DX002 (ip), vehicle: saline with Tween-80) 100 % of control and 109 % of control; under setting [5], 118 % of control; (dose: 200.0 mg/kg/injection, schedule: Q04DX002 (ip), vehicle: saline with Tween-80) 102 % of control and 88 % of control; under setting [6], 106 % of control; (dose: 400.0 mg/kg/injection, schedule: Q04DX002 (ip), vehicle: saline with Tween-80) 98 % of control and 103 % of control; under setting [7], 100 % of control.

In the case of `CCC1(C)OC(=O)NC1=O` (stereo not drawn), the T/C was 96 % of control under setting [8], 101 % of control under setting [17] and 86 % of control under setting [18].

On to `CN1CCC(CSC(=O)C(O)(c2ccccc2)C2CCCCC2)C1` (stereo not drawn), for which, under setting [19], the T/C was 97 % of control.

`Cc1ccc2[c](c1)[Sn]([c]1ccccc1)([c]1ccccc1)[c]1cc(C)ccc1N2C`: the T/C is, setting by setting: (dose: 100.0 mg/kg/injection, schedule: Q01DX001 (ip), vehicle: steriod suspending solution) 96 % of control; (dose: 200.0 mg/kg/injection, schedule: Q01DX001 (ip), vehicle: steriod suspending solution) 94 % of control; (dose: 400.0 mg/kg/injection, schedule: Q01DX001 (ip), vehicle: steriod suspending solution) 96 % of control.

For `O=C1c2ccccc2C(=O)N1OCc1ccc(CON2C(=O)c3ccccc3C2=O)cc1`, the T/C by setting is: under setting [13], 101 % of control; under setting [14], 95 % of control; under setting [15], 95 % of control.

The values above are taken from PubChem BioAssay AID248 (DTP/NCI, 2004).
